Source: US11866518B2, “Bicyclic peptide ligands specific for TSLP” (BicycleTx Limited, priority 2020, dated 2024)
*1 amine or outer side, *2 acyl side, *3 side chain or, on linkers, in order; H or OH if unused. Where a SMILES comes first, the peptide text is derived from it. Bridges are numbered along the chain shown (N, C = ends). TATA = O=C(CC[*:1])N1CN(C(=O)CC[*:2])CN(C(=O)CC[*:3])C1

target: TSLP (Homo sapiens, UniProt Q969D9); assay: Human TSLP Surface Plasmon Resonance (SPR) binding assay; set-up: The resulting construct spCD33-6×HN-TEV-hTSLP(29-159)-Avi; 6xHN tag with TEV site (N, cleaved yes); made in house; host or cells: Expi293F cells; conditions: biotinylated human TSLP immobilized on streptavidin chip; 20° C.; steady-state or kinetic 1:1 fit; read-out: hTSLP SPR Kd
Sequence (Q969D9 29-159): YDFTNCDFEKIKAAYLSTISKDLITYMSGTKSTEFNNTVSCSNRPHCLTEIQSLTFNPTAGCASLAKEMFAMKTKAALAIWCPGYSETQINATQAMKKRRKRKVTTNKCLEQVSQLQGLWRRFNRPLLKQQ

Q: How did the Kd turn out when CC(C)C[C@@H]1NC(=O)[C@@H]2CSCCC(=O)N3CN(CN(C3)C(=O)CCSC[C@@H](C(=O)N[C@@H](C)C(N)=O)NC(=O)[C@H](CCC(=O)O)NC(=O)[C@@H]3CCCN3C(=O)[C@H](CCC(N)=O)NC(=O)[C@H](Cc3ccc(O)cc3)NC(=O)[C@H](CC(C)C)NC1=O)C(=O)CCSC[C@H](NC(=O)[C@H](C)N)C(=O)N[C@@H](CCC(N)=O)C(=O)N[C@@H](CCC(=O)O)C(=O)N[C@@H](Cc1c[nH]cn1)C(=O)N[C@@H](CC(=O)O)C(=O)N[C@@H](Cc1c[nH]c3ccccc13)C(=O)N[C@@H](Cc1ccc(O)cc1)C(=O)N2 [Example 231, A-(SEQ ID NO: 158)-A] (H-ACQEHDWYCLLYQPECA-NH2; linker 2-9-16 via TATA; N-terminus and C-terminus assumed) was run?
A: The Kd was 1800 nM.

Q: CC(=O)N[C@H]1CSCCC(=O)N2CN3CN(C2)C(=O)CCSC[C@H](NC(=O)[C@H](CC(=O)O)NC(=O)[C@H](CCC(=O)O)NC(=O)[C@H](CC(C)C)NC(=O)[C@H](Cc2c[nH]c4ccccc24)NC(=O)[C@H](CCC(N)=O)NC1=O)C(=O)N[C@@H](Cc1c[nH]c2ccccc12)C(=O)N[C@@H](CCCNC(=N)N)C(=O)NCC(=O)N[C@@H](Cc1cccnc1)C(=O)N[C@H](C(N)=O)CSCCC3=O [Example 158, Ac-(SEQ ID NO: 116)] was tested. Which Kd did it give?
A: Its Kd is 5400 nM.

Q: CC(=O)N[C@H]1CSCCC(=O)N2CN3CN(C2)C(=O)CCSC[C@H](NC(=O)[C@H](CC(=O)O)NC(=O)[C@H](CCC(=O)O)NC(=O)[C@H](CC(C)C)NC(=O)[C@H](Cc2c[nH]c4ccccc24)NC(=O)[C@H](CCC(N)=O)NC1=O)C(=O)N[C@@H](Cc1c[nH]c2ccccc12)C(=O)N[C@@H](CCCNC(=N)N)C(=O)NCC(=O)N[C@@H](Cc1ccccn1)C(=O)N[C@H](C(N)=O)CSCCC3=O [Example 146, Ac-(SEQ ID NO: 105)] was tested. Which Kd did it give?
A: The Kd was 910 nM.

Q: How did the Kd turn out when CC(=O)N[C@H]1CSCCC(=O)N2CN3CN(C2)C(=O)CCSC[C@H](NC(=O)[C@H](CC(=O)O)NC(=O)[C@H](CCC(=O)O)NC(=O)[C@H](CC(C)C)NC(=O)[C@H](Cc2c[nH]c4ccccc24)NC(=O)[C@H](CCC(N)=O)NC1=O)C(=O)N[C@@H](Cc1c[nH]c2ccccc12)C(=O)N[C@@H](CCCNC(=N)N)C(=O)NCC(=O)N[C@@H](Cc1cc(F)c(Cl)c(F)c1)C(=O)N[C@H](C(N)=O)CSCCC3=O [Example 58, Ac-(SEQ ID NO: 46)] was run?
A: The Kd was 52 nM.

Q: With CC(=O)N[C@H]1CSCCC(=O)N2CN3CN(C2)C(=O)CCSC[C@H](NC(=O)[C@H](CC(=O)O)NC(=O)[C@H](CCC(=O)O)NC(=O)[C@H](CC(C)C)NC(=O)[C@H](Cc2c[nH]c4ccccc24)NC(=O)[C@H](CCC(N)=O)NC1=O)C(=O)N[C@@H](Cc1c[nH]c2ccccc12)C(=O)N[C@@H](CCCNC(=N)N)C(=O)NCC(=O)N[C@@H](Cc1cc(F)c(F)c(F)c1)C(=O)N[C@H](C(N)=O)CSCCC3=O [Example 37, Ac-(SEQ ID NO: 33)] as the molecule, how does the Kd read?
A: The Kd was 19 nM.

Q: For CC(C)C[C@@H]1NC(=O)[C@H](Cc2c[nH]c3ccccc23)NC(=O)[C@H](CCC(N)=O)NC(=O)[C@@H](NC(=O)[C@H](CCC(=O)O)NC(=O)[C@H](CC(C)C)NC(=O)[C@H](CC(N)=O)NC(=O)[C@H](CC(N)=O)NC(=O)[C@@H](NC(=O)[C@@H](N)CCC(=O)O)[C@@H](C)O)CSCCC(=O)N2CN3CN(C2)C(=O)CCSC[C@H](NC(=O)[C@H](CC(=O)O)NC(=O)[C@H](CCC(=O)O)NC1=O)C(=O)N[C@@H](Cc1c[nH]c2ccccc12)C(=O)N[C@@H](CCCNC(=N)N)C(=O)NCC(=O)N[C@@H](Cc1ccccc1)C(=O)N[C@H](C(=O)N[C@@H](C)C(N)=O)CSCCC3=O [Example 71, ETNNLE-(SEQ ID NO: 38)-A], which Kd is on record?
A: The Kd was 82 nM.

Q: With CC(C)C[C@@H]1NC(=O)[C@H](Cc2c[nH]c3ccccc23)NC(=O)[C@@H]2CSCCC(=O)N3CN(CN(C3)C(=O)CCSC[C@H](NC(=O)CNC(=O)[C@H](CC(=O)O)NC(=O)[C@H](C)N)C(=O)N[C@@H](CCC(=O)O)C(=O)N[C@@H](Cc3c[nH]c4ccccc34)C(=O)N[C@@H](CC(N)=O)C(=O)N[C@@H](Cc3c[nH]c4ccccc34)C(=O)N[C@@H](C)C(=O)N[C@@H](Cc3ccc(O)cc3)C(=O)N[C@@H](CC(=O)O)C(=O)N2)C(=O)CCSC[C@@H](C(=O)N[C@@H](C)C(N)=O)NC(=O)CNC1=O [Example 201, ADG-(SEQ ID NO: 146)-A] (H-ADGCEWNWAYDCWLGCA-NH2; linker 4-12-16 via TATA; N-terminus and C-terminus assumed) as the molecule, how does the Kd read?
A: The Kd was 170 nM.

Q: Which Kd does the source give for CC(C)C[C@@H]1NC(=O)[C@H](Cc2c[nH]c3ccccc23)NC(=O)[C@H](Cc2c[nH]c3ccccc23)NC(=O)[C@H]([C@@H](C)O)NC(=O)[C@H](CCC(=O)O)NC(=O)[C@@H]2CSCCC(=O)N3CN(CN(C3)C(=O)CCSC[C@H](N)C(=O)N[C@@H]([C@@H](C)O)C(=O)N[C@@H](CCC(=O)O)C(=O)N[C@@H](CC(C)C)C(=O)N[C@@H](CC(=O)O)C(=O)N3CCC[C@H]3C(=O)N[C@@H](Cc3c[nH]c4ccccc34)C(=O)N[C@@H]([C@@H](C)O)C(=O)N2)C(=O)CCSC[C@@H](C(N)=O)NC1=O [Example 185, (SEQ ID NO: 121)] here?
A: The Kd was 260 nM.

Q: Which Kd does the source give for CC(C)C[C@@H]1NC(=O)[C@H](Cc2c[nH]c3ccccc23)NC(=O)[C@H](Cc2c[nH]c3ccccc23)NC(=O)[C@H](CO)NC(=O)[C@H](CO)NC(=O)[C@@H]2CSCCC(=O)N3CN(CN(C3)C(=O)CCSC[C@@H](C(=O)N[C@@H](CO)C(=O)N[C@@H](CCC(=O)O)C(=O)N[C@@H](CO)C(=O)N[C@H](C(=O)N[C@@H](Cc3c[nH]cn3)C(=O)N[C@H](C(=O)N[C@@H](C)C(N)=O)[C@@H](C)O)C(C)C)NC1=O)C(=O)CCSC[C@H](NC(=O)[C@H](C)N)C(=O)N[C@@H](CCCNC(=N)N)C(=O)N[C@@H](CC(=O)O)C(=O)N[C@@H](CC(C)C)C(=O)N[C@@H](CC(=O)O)C(=O)N1CCC[C@H]1C(=O)N[C@@H](Cc1c[nH]c3ccccc13)C(=O)N[C@@H]([C@@H](C)O)C(=O)N2 [Example 175, A-(SEQ ID NO: 122)-SESVHTA] here?
A: Its Kd is 240 nM.

Q: CC(C)C[C@@H]1NC(=O)[C@H](Cc2c[nH]c3ccccc23)NC(=O)[C@H](Cc2c[nH]c3ccccc23)NC(=O)[C@H]([C@@H](C)O)NC(=O)[C@H](CCC(=O)O)NC(=O)[C@@H]2CSCCC(=O)N3CN(CN(C3)C(=O)CCSC[C@H](N)C(=O)N[C@@H](CCCCN)C(=O)N[C@@H](CCC(=O)O)C(=O)N[C@@H](CC(C)C)C(=O)N[C@@H](CC(=O)O)C(=O)N3CCC[C@H]3C(=O)N[C@@H](Cc3c[nH]c4ccccc34)C(=O)N[C@@H]([C@@H](C)O)C(=O)N2)C(=O)CCSC[C@@H](C(N)=O)NC1=O [Example 179, (SEQ ID NO: 130)] (H-CKELDPWTCETWWLC-NH2; linker 1-9-15 via TATA) was tested. Which Kd did it give?
A: Its Kd is 360 nM.

Q: For CC(=O)N[C@H]1CSCCC(=O)N2CN3CN(C2)C(=O)CCSC[C@H](NC(=O)[C@H](CC(=O)O)NC(=O)[C@H](CCC(=O)O)NC(=O)[C@H](CC(C)C)NC(=O)[C@H](Cc2c[nH]c4ccccc24)NC(=O)[C@H](CCC(N)=O)NC1=O)C(=O)N[C@@H](Cc1c[nH]c2ccccc12)C(=O)N[C@@H](CCCC[N+](C)(C)C)C(=O)NCC(=O)N[C@@H](Cc1ccccc1)C(=O)N[C@H](C(N)=O)CSCCC3=O [Example 81, Ac-(SEQ ID NO: 61)], which Kd is on record?
A: Its Kd is 100 nM.
